Patent US11744804B2, “Microcapsule powder stable in gastric acid, method for preparing same, and use thereof” (HOBOOMLIFE BIO-TECHNOLOGY (SHENZHEN) CO., LTD., priority 2021, dated 2023)

Assay: Release test in artificial intestinal juice
Format: physicochemical
Conditions: for Dissolution rate of core material after 1 h / Dissolution rate of core material after 2 h / Dissolution rate of core material after 3 h / Dissolution rate of core material after 4 h: artificial intestinal juice, 37° C., 100 r/min; for Retention rate of NADH before test: before artificial intestinal juice test
Description: A Tablet Four-Usage Tester was used for testing. The tester was started for preheating. The temperature was set at 37° C. A basket shaft and a basket were installed. A positioning ball used for positioning (marked) was put into a dissolution cup (900 mL of prepared artificial intestinal juice was added into each dissolution cup) and fixed. 200 mg of sample 2 and 200 mg of sample 5 in the examples as well as 200 mg of corresponding core materials were taken respectively, wrapped with gauze and put into corresponding baskets. After being rotated at 100 r/min for 1, 2, 3 and 4 h, 1 mL of liquid was taken from each of the dissolution cups. The contents of the core materials in the samples were detected by the same detection method as in Example 1.
Retention rate of core material=(Theoretical embedding amount of core material in sample-Content of core material in artificial intestinal juice detected)/Theoretical embedding amount of core material in sample. The theoretical embedding amount of the core material in the sample is the added amount of the core material in the sample.

With `NC(=O)C1=CN([C@@H]2O[C@H](COP(=O)(O)OP(=O)(O)OC[C@H]3O[C@@H](n4cnc5c(N)ncnc54)[C@H](O)[C@@H]3O)[C@@H](O)[C@H]2O)C=CC1` [NADH, reduced nicotinamide adenine dinucleotide] the “Dissolution rate of core material after 1 h” value was 99.6%, the “Dissolution rate of core material after 2 h” value was 99.5% and the “Dissolution rate of core material after 3 h” value was 99.4%. For the same compound, the “Dissolution rate of core material after 4 h” value was 99.5% and the “Retention rate of NADH before test” value was 100%.
In the case of `NC(=O)C1=CN([C@@H]2O[C@H](COP(=O)(O)OP(=O)(O)OC[C@H]3O[C@@H](n4cnc5c(N)ncnc54)[C@H](OP(=O)(O)O)[C@@H]3O)[C@@H](O)[C@H]2O)C=CC1` [NADPH, reduced nicotinamide adenine dinucleotide phosphate], the “Dissolution rate of core material after 1 h” value is reported as 98.4%, the “Dissolution rate of core material after 2 h” value is reported as 99.7% and the “Dissolution rate of core material after 3 h” value is reported as 99.3%. The “Dissolution rate of core material after 4 h” value was 99.1% and the “Retention rate of NADH before test” value was 100%.
